Data: PubChem BioAssay AID1159563 (GlaxoSmithKline (GSK), 2015)
Active and inactive are the calls of the source. The rule behind the calls is not given here.

Test system: HepG2 cytotoxicity
Assay: HepG2 cell cytotoxicity, cytotoxicity control (AID 1159563)

SMILES | IC50
COCCn1c(-c2ccc3c(c2)OCO3)cnc1NCc1ccccc1OC | 40 µM
CN(Cc1nnnn1C1CCN(Cc2ccc(-n3ccnc3)cc2)CC1)c1ccc(F)cc1F | > 100 µM (inactive)
CC(=O)Nc1nc(-c2cc(C)ccc2C)c(C)s1 | > 100 µM (inactive)
Nc1cc(-c2ccc3ncnc(N4CCOCC4)c3c2)cnc1N | > 100 µM (inactive)
CCCc1cc(N)nc(-c2cc(CCC)cc(N)n2)c1 | 32 µM
c1cc(-c2ncc(-c3ccn[nH]3)s2)ccn1 | > 100 µM (inactive)
O=C(Cc1ccc2c(c1)CCC2)Nc1n[nH]c(-c2ccccn2)n1 | 50 µM
O=c1cc(CSc2ccc(Cl)cc2)nc(-c2ccccn2)[nH]1 | > 100 µM (inactive)
COc1ccc(S(=O)(=O)Nc2ccccc2OC)cc1NC(=O)CCCc1c[nH]c2ccccc12 | > 100 µM (inactive)
CN(C)S(=O)(=O)c1cccc(CSc2nnc(-c3ccc4c(c3)OCO4)o2)c1 | > 100 µM (inactive)
Cc1ccccc1CNC(=O)CN(Cc1ccccn1)Cc1ccccn1 | > 160 µM (inactive)
CC1(C)CCC(=Cc2ccc(Cl)cc2)CC1(O)Cn1ccnc1 (configuration not stated) | 50 µM
Cn1nc(-c2ccc(NC(=O)Cc3ccccc3Cl)cc2)c2c(N)ncnc21 | > 100 µM (inactive)
CN(Cc1cc2ccccc2s1)c1ncc2c(N)nc(N)nc2n1 | 40 µM
Cc1ccccc1NS(=O)(=O)c1ccc2[nH]cc(C(=O)NC3CCCC3)c(=O)c2c1 | 25 µM
COc1ccc(NS(=O)(=O)c2cccc(NC(=O)c3cc(F)cc(F)c3)c2)cc1 | 32 µM
CCOc1ccc2nc(NC(=O)c3ccc([N+](=O)[O-])s3)sc2c1 | 32 µM
O=C(NCCc1csc(-c2ccc(F)cc2)n1)c1ccco1 | > 100 µM (inactive)
CN(C)c1ncc(-c2cncn2CCOc2ccc(Cl)cc2)cn1 | > 100 µM (inactive)
N#Cc1cccc(CN2CCC(N(Cc3cccnc3)C(=O)c3cc(F)c(F)cc3F)CC2)c1 | > 100 µM (inactive)
O=C(CN(Cc1ccccn1)Cc1ccccn1)NC1Cc2ccccc2C1 | > 160 µM (inactive)
O=S(=O)(c1ccccc1C(F)(F)F)N1CCN(Cc2ccc(-n3ccnc3)cc2)CC1 | > 100 µM (inactive)
CN(C)c1ccc(N)cc1CN(CC1CCCO1)S(C)(=O)=O (configuration not stated) | > 100 µM (inactive)
Cc1ccc(Nc2nc(C3CCCN3Cc3ccn[nH]3)cs2)nc1 (configuration not stated) | 32 µM

SMILES | IC50
O=C(CN1CCN(c2ccccn2)CC1)Nc1cc(S(=O)(=O)N2CCCCCC2)ccc1Cl | > 100 µM (inactive)
CN(C)CCOc1ccc(N2CCN(S(=O)(=O)c3ccc(Cl)cc3)CC2)cc1 | 50 µM
CC(=O)Nc1ccc(CN2CCC(N3CC(c4ccccc4)(c4ccccc4)OCC3=O)CC2)cc1 | 79 µM
CN1CCN(c2nc(-c3ccc(Cl)cc3)c3c(N)n(C)nc3n2)CC1 | 79 µM
O=C(NNC(=O)c1ccccn1)c1ccc(-c2ccccc2)cc1 | > 100 µM (inactive)
NCc1csc(Nc2cc(Oc3ccccc3)ncn2)n1 | > 100 µM (inactive)
COc1cc(C2SCC(=O)Nc3c2c(C)nn3-c2nc3ccccc3s2)cc(OC)c1O (configuration not stated) | > 100 µM (inactive)
Cn1nc([N+](=O)[O-])nc1N1CCCCC1 | > 100 µM (inactive)
O=C1NCCn2ccc(Nc3nc(NC4CCC(O)CC4)ncc3Cl)c21 (configuration not stated) | > 100 µM (inactive)
CNc1cncc(C2CCCN2C(=O)Cc2ccc3ccccc3c2)n1 (configuration not stated) | > 100 µM (inactive)
O=C(Cn1cnc2c(-c3ccccc3)csc2c1=O)N1CCCCC1 | > 100 µM (inactive)
Cc1c(Nc2cc(C3CC3)[nH]n2)ccc(C#N)c1Cl | 40 µM
COc1ccc(-c2nc3ncccc3o2)cc1NC(=O)c1cccs1 | > 100 µM (inactive)
Cc1ccc2onc(Nc3ccnc(Nc4cccc(S(C)(=O)=O)c4)n3)c2c1 | 50 µM
c1ccc(CCNCc2cncc3nc(-c4cnccn4)n(C4CCCCC4)c23)cc1 | > 100 µM (inactive)
O=C(NCC(c1cccnc1)N1CCc2ccccc2C1)C(=O)Nc1cccc(Cl)c1 (configuration not stated) | > 100 µM (inactive)
COc1ncc(-c2ccc3nccc(-c4ccncc4)c3c2)cc1NS(C)(=O)=O | > 100 µM (inactive)
CN(C)Cc1ccc(N2CCC(NS(=O)(=O)c3ccc(Cl)cc3)CC2)cc1 | 50 µM
CCOC(=O)c1cn[nH]c1S(=O)(=O)N1CCC1c1ccccc1 (configuration not stated) | > 100 µM (inactive)
O=C(NCCc1nc(-c2ccc(F)c(F)c2)n[nH]1)C1CCCCC1 | > 100 µM (inactive)
COCc1cc(Nc2ccc(Cl)cc2)nc(-c2ccccn2)n1 | 13 µM
CCCc1nc2nc(N)nc(N)c2cc1CC | 20 µM
CN(Cc1ccc(C(N)=O)cc1)C(c1ccc(F)cc1)c1cccnc1 (configuration not stated) | > 100 µM (inactive)
Cn1c(CC(=O)NNC(=O)c2ccc3ccccc3n2)nc2ccccc21 | > 100 µM (inactive)

SMILES | IC50
Cc1nc(-c2ccncc2)ncc1C(C)NC(=O)c1ccc(Cl)s1 (configuration not stated) | > 100 µM (inactive)
Cc1ccc2nc(N(Cc3cccnc3)C(=O)CCc3ccccc3)sc2c1 | > 100 µM (inactive)
Cc1ncsc1CNc1cnc(-c2ccc3c(c2)OCCO3)c(-c2cnn(C)c2)c1 | > 100 µM (inactive)
COc1ccnc2[nH]cc(-c3cc(C(=O)N[C@H](CO)c4ccccc4)co3)c12 | 16 µM
COc1ccc(C(=O)NC2CCN(CCn3c(=O)ccc4ncc(F)cc43)CC2)cc1Cl | > 100 µM (inactive)
O=C(Cn1cnc2cc([N+](=O)[O-])ccc2c1=O)NCCc1ccc(Cl)cc1Cl | > 100 µM (inactive)
COc1ccc(OC)c(NC(=O)c2ccc([N+](=O)[O-])o2)c1 | 20 µM
COc1cc(F)c2ncc(F)c(CCN3CC[C@H](NCc4cc5c(cn4)OCS5)[C@@H](O)C3)c2c1 | 50 µM
Cc1sc(C)c(C(F)(F)F)c1CNCCCNc1cc(=O)c2ccccc2[nH]1 | 50 µM
CN(C)CCN(C)Cc1ccc(Cl)cc1NS(=O)(=O)c1ccc(Cl)c(Cl)c1 | 32 µM
COc1cnc2ccc(=O)n(CCN3CCC(NC/C=C/c4cc(F)ccc4F)CC3)c2c1 | 63 µM
O=[N+]([O-])c1ccc(-c2nnn(-c3ccc(Cl)cc3)n2)o1 | > 100 µM (inactive)
COc1ccc(C2C3CCCCC3(O)CCN2CC(=O)Nc2ccc(Cl)cc2Cl)cc1 (configuration not stated) | > 100 µM (inactive)
COc1ccc2ncc(=O)n(CCN3CC[C@H](NCc4ncc(Cl)c5[nH]ncc45)[C@H](O)C3)c2n1 | > 100 µM (inactive)
CC(c1ccc2c(c1)CCCC2)N(C)c1ncc2c(N)nc(N)nc2n1 (configuration not stated) | 50 µM
COc1ccc(CN2C(=O)C(O)(CC(=O)c3ccncc3)c3cc(Br)ccc32)cc1OC (configuration not stated) | 40 µM
CCc1cc(C(=O)Nc2nccn2-c2ccccc2)cs1 | > 100 µM (inactive)
Cc1cccc(NS(=O)(=O)c2ccc3c(c2)C(=O)c2cc(S(=O)(=O)Nc4cccc(C)c4C)ccc2-3)c1C | > 100 µM (inactive)
COc1ccc(C2=NCC(CSc3nnc(-c4ccc5c(c4)OCO5)o3)S2)cc1 (configuration not stated) | > 100 µM (inactive)
O=C(NCCc1cccnc1)c1ccc(-c2ccccc2F)o1 | > 100 µM (inactive)
COc1ccc(Cl)cc1CC(=O)Nc1n[nH]c(-c2ccccn2)n1 | 32 µM
CCCn1c(NC(=O)CCn2cc(Br)cn2)nc2ccccc21 | > 100 µM (inactive)
Cc1cc(Nc2cc(C3CC3)[nH]n2)nc(N2CCCC2)n1 | 32 µM
CC(CCc1ccccc1)NC(=O)CN(Cc1ccccn1)Cc1ccccn1 (configuration not stated) | > 160 µM (inactive)
